The text below walks through data of EPA's ToxValDB 9.5.

Bounds are passed on as bounds.

The subject of data set [1] is Rattus norvegicus.
Data set [2] has as its system Canidae. Conditions: Dog Other.
Where [3] appears, read: subchronic, duration: 90 days, oral, diet, M/F, Sprague-Dawley, no effects.
[4] abbreviates: subchronic, duration: 90 days, oral, diet, M/F, no effects.
Setting [5] is: subchronic, duration: 90 days, clinical chemistry.
Setting [6] is: reproduction developmental, histopathology: nonneoplastic.
Setting [7] is: chronic, duration: 2 years, M/F, clinical chemistry.
[8] abbreviates: subchronic, duration: 90 days, oral, diet, Wistar, no effects.

What is called NOAEL is the highest tested level that showed no adverse finding. `O=C([O-])c1cc(C(=O)[O-])c2c(n1)C(=O)C(=O)c1cc(C(=O)O)[nH]c1-2.[Na+].[Na+]` came in with an NOAEL in data set [1] (subchronic, duration: 90 days, oral, gavage, M/F, Crj:CD) of 100 mg/kg-day.
As for `CC(C)(CO)C1OCC2(CO1)COC(C(C)(C)CO)OC2` (stereo not given), in data set [1] (subchronic, duration: 90 days, oral, M/F, Sprague-Dawley, no effects), the NOAEL worked out at 2000 mg/kg-day.
Regarding `CC(C)CC(=O)N1CCC[C@H](COc2cccc3c2C(N)=NS(=O)(=O)N3)C1`, the NOAEL in data set [1] (reproduction developmental, duration: 15 days, oral, gavage, no effects) is 1000 mg/kg-day; in data set [1] (subchronic, duration: 13 weeks, oral, diet, M/F, no effects) it was 100 mg/kg-day.
With `CCCNC(=O)C(C)(C)COc1cccc2c1C(N)=NS(=O)(=O)N2`, the NOAEL in data set [1] (setting [3]) was 20 mg/kg-day.
Turning to `CC(=O)c1cccc2ccccc12` [1'-Acetonaphthone], the NOAEL in data set [1] (setting [4]) is 33 mg/kg-day.
Compound `CC(O)CO` (stereo not given) [1,2-Propylene glycol] gave an NOEL in data set [1] (chronic, duration: 2 years) of 2500 mg/kg-day.
In data set [1] (setting [3]), `OC1CSC(O)CS1` (stereo not given) [1,4-Dithiane-2,5-diol] returned an NOAEL of 3.14 mg/kg-day.
Take `SCCCCCCCCS` [1,8-Octanedithiol]: the NOAEL in data set [1] (setting [3]) was 0.705 mg/kg-day.
`CC(=O)CSCc1ccco1` [1-(2-Furfurylthio)propanone] had an NOAEL in data set [1] (setting [4]) of 3.76 mg/kg-day.
Compound `C=C(C)c1ccc(C)cc1` [1-Methyl-4-(prop-1-en-2-yl)benzene] showed an NOAEL in data set [1] (subchronic, duration: 90 days) of 0.625 mg/kg-day.
For orientation: LOAEL means the lowest dose or exposure tested at which an adverse effect was seen. Take `Clc1cc2c(cc1Cl)Oc1cc(Cl)c(Cl)cc1O2` [2,3,7,8-Tetrachlorodibenzo-p-dioxin]: the lowest-observed-adverse-effect level (LOAEL) in data set [1] (reproduction developmental, injection, subcutaneous, Wistar, behavior) worked out at 2.5e-05 mg/kg-day.
As for `CC(S)C(C)S` (stereo not given) [2,3-Butanedithiol], the NOAEL in data set [1] (setting [3]) stood at 0.703 mg/kg-day.
For the compound `Clc1ccc(-c2ccc(Cl)cc2Cl)cc1` [2,4,4'-Trichlorobiphenyl], the no observed adverse effect level (NOAEL) in data set [1] (setting [5]) turned out to be 0.4 mg/kg-day.
Consider `CCC(C)(C)c1ccc(O)c(C(C)(C)CC)c1` [2,4-Di-tert-pentylphenol], for which the NOAEL in data set [1] (subchronic, duration: 90 days, oral, M/F, Wistar, histopathology: nonneoplastic) is 5 mg/kg-day.
Compound `CC(C)=CCCC(C)C=O` (stereo not given) [2,6-Dimethylhept-5-enal] returned an NOAEL in data set [1] (subchronic, duration: 3 months, oral, diet, M/F, organ weight) of 37 mg/kg-day.
For the compound `CC(C)=CC(=O)SC(C)C` [2-Butenethioic acid, 3-methyl-, S-(1-methylethyl) ester], the NOAEL in data set [1] (subchronic, duration: 90 days, oral) was found to be 6.63 mg/kg-day.
Take `CCC1SSC(CC)S1` (stereo not given) [3,5-Diethyl-1,2,4-trithiolane]: the NOAEL in data set [1] (setting [3]) stood at 0.2 mg/kg-day.
In data set [1] (subchronic, duration: 90 days, oral, diet), `CCOC(=O)c1ccoc1-c1ccccc1` [3-Furancarboxylic acid, 2-phenyl-, ethyl ester] showed an NOEL of 13 mg/kg-day.
With `CC1=C(O)C(=O)C(C)O1` (stereo not given) [4-Hydroxy-2,5-dimethyl-3(2H)furanone], the NOAEL was determined as 200 mg/kg-day in data set [1] (chronic, duration: 2 years, M/F, body weight) and 200 mg/kg-day in data set [1] (chronic, duration: 2 years, oral, diet, M/F, Sprague-Dawley, body weight).
Compound `Cc1ccc(C(=O)c2ccccc2)cc1` [4-Methylbenzophenone] came in with an LOAEL in data set [1] (setting [6]) of 6 mg/kg-day.
In the case of `CC1CCC2(O1)C(C)(C)CCCC2(C)O` (stereo not given) [6-Hydroxydihydrotheaspirane], the NOAEL in data set [1] (subchronic, duration: 90 days, oral, diet, M/F, Crj:CD, food efficiency) turned out to be 52 mg/kg-day.
In data set [1] (setting [4]), `Cc1ccc2ncccc2c1` [6-Methylquinoline] came in with an NOAEL of 2.2 mg/kg-day.
`CCCCC/C=C/C=C/C(=O)NCC(C)C` [(E,E)-N-(2-Methylpropyl)-2,4-decadienamide] gave an NOAEL in data set [1] (subchronic, duration: 90 days, oral, diet, M/F, Sprague-Dawley, histopathology: nonneoplastic) of 10 mg/kg-day.
As for `CC(C)=O` [Acetone], the NOAEL in data set [1] (subchronic, duration: 90 days, oral, drinking water) was determined as 900 mg/kg-day.
In the case of `O=S(=O)([O-])c1ccc2c(N=Nc3ccc(S(=O)(=O)[O-])c4ccccc34)c(O)c(S(=O)(=O)[O-])cc2c1.[Na+].[Na+].[Na+]` [Amaranth], in data set [1] (developmental, duration: 19 days, oral, gavage, F, Osborne-Mendel, development), the no observed adverse effect level (NOAEL) came to 15 mg/kg-day.
The compound `O=C(c1ccccc1)c1ccccc1` [Benzophenone] returned an LOAEL in data set [1] (setting [6]) of 6 mg/kg-day.
Compound `OCc1ccccc1` [Benzyl alcohol] displayed an NOAEL in data set [1] (chronic, duration: 103 weeks, oral, gavage, M/F, no effects) of 400 mg/kg-day.
Regarding `CCCCOC(=O)c1ccccc1C(=O)OCc1ccccc1` [Benzyl butyl phthalate], the NOAEL in data set [1] (developmental, oral, diet, M/F, development) was found to be 50 mg/kg-day.
With `Cc1occc1SSSSc1ccoc1C` [Bis(2-methyl-3-furyl) tetrasulfide], in data set [1] (subchronic, duration: 90 days, oral, diet, M/F, Wistar, no effects), the NOAEL stood at 0.56 mg/kg-day.
`N#Cc1cc(Br)c(O)c(Br)c1` [Bromoxynil]: the NOAEL amounted to 4 mg/kg-day in data set [1] (developmental, development) and 0.3 mg/kg-day in data set [2] (chronic, duration: 1 years, oral, organ weight).
For `O=C([O-])c1[nH]n(-c2ccc(S(=O)(=O)[O-])cc2)c(=O)c1N=Nc1ccc(S(=O)(=O)[O-])cc1.[Na+].[Na+].[Na+]` [C.I. Acid Yellow 23], the NOAEL in data set [1] (chronic, M, body weight) amounted to 984 mg/kg-day.
For `CCCCCCCCCCCCCCCCCC(=O)OC(C)C(=O)OC(C)C(=O)[O-].CCCCCCCCCCCCCCCCCC(=O)OC(C)C(=O)OC(C)C(=O)[O-].[Ca+2]` (stereo not given) [Calcium stearoyl-2-lactylate], in data set [1] (chronic, duration: 1 years, M/F, Wistar, no effects), the NOAEL was 2200 mg/kg-day.
Regarding `[Cr+3]` [Chromium (III)], the NOAEL in data set [1] (chronic, duration: 2 years, oral, diet, M/F, Fischer 344, histopathology: neoplastic) was found to be 286 mg/kg-day.
Turning to `O=c1ccc2ccccc2o1` [Coumarin], in data set [2] (chronic, duration: 2 years, histopathology: nonneoplastic), the NOAEL worked out at 10 mg/kg-day.
As to `COc1cc(/C=C/C(=O)CC(=O)/C=C/c2ccc(O)c(OC)c2)ccc1O` [Curcumin], the NOAEL in data set [1] (reproduction developmental, duration: 24 weeks, oral, diet, M/F, body weight) was at least 250 mg/kg-day.
Regarding `ClC1=C(Cl)[C@]2(Cl)[C@@H]3[C@@H]4C[C@@H]([C@H]5O[C@@H]45)[C@@H]3[C@@]1(Cl)C2(Cl)Cl` [Dieldrin], the LD50 in data set [1] (acute, oral, mortality) turned out to be 25 mg/kg-day.
Turning to `COc1cc(COC(=O)CCCCCCC(C)C)ccc1O` [Dihydrocapsiate], the NOAEL in data set [1] (chronic, duration: 26 weeks, oral, gavage, M/F, Sprague-Dawley, histopathology: nonneoplastic) turned out to be 300 mg/kg-day; in data set [1] (subchronic, duration: 13 weeks, oral, gavage, M/F, Sprague-Dawley, clinical chemistry) it was 300 mg/kg-day; in data set [1] (subchronic, duration: 13 weeks, oral, gavage, M/F, Sprague-Dawley, organ weight) it was 300 mg/kg-day.
The compound `CC(C)CCCCCCCOC(=O)c1ccccc1C(=O)OCCCCCCCC(C)C` [Diisodecyl phthalate] came in with an NOAEL in data set [2] (subchronic, duration: 13 weeks, histopathology: nonneoplastic) of 15 mg/kg-day.
Regarding `CC(C)CCCCCCOC(=O)C1CCCCC1C(=O)OCCCCCCC(C)C` (stereo not given) [Diisononyl cyclohexane-1,2-dicarboxylate], the NOAEL in data set [1] (subchronic, duration: 13 weeks, M/F, Wistar, clinical chemistry) was 100 mg/kg-day.
In data set [1] (subchronic, duration: 90 days, oral, body weight), `c1ccc(Oc2ccccc2)cc1` [Diphenyl oxide] had an NOAEL of 15 mg/kg-day.
As to `CCOC(=O)C1OC1(C)c1ccc(C)cc1` (stereo not given) [Ethyl 3-methyl-3-(4-methylphenyl)oxirane-2-carboxylate], the no observed adverse effect level (NOAEL) in data set [1] (setting [7]) turned out to be 35 mg/kg-day.
Compound `CCOC(=O)C1OC1(C)c1ccccc1` (stereo not given) [Ethyl methylphenylglycidate] displayed an NOAEL in data set [1] (setting [7]) of 35 mg/kg-day.
With `Cc1cc(SSc2cc(C)oc2C)c(C)o1` [Furan, 3,3'-dithiobis[2,5-dimethyl-], in data set [1] (subchronic, duration: 90 days, no effects), the NOAEL came out at 0.29 mg/kg-day.
For the compound `Cc1occc1SSCc1ccco1` [Furfuryl 2-methyl-3-furyl disulfide], in data set [1] (setting [8]), the no-observed-adverse-effect level (NOAEL) was determined as 0.45 mg/kg-day.
On to `CCCOC(=O)c1cc(O)c(O)c(O)c1` [Gallic acid n-propyl ester], for which the NOAEL in data set [1] (subchronic, duration: 13 weeks, oral, diet, M/F, clinical chemistry) turned out to be 1910 mg/kg-day; in data set [1] (subchronic, duration: 90 days, oral, diet, M/F, hematological), 135 mg/kg-day.
For `CC/C=C/CCOC(=O)C(CC)CC` [Hex-3-enyl 2-ethylbutanoate], the NOAEL in data set [1] (reproduction developmental, duration: 10 days, oral, gavage, F, Sprague-Dawley, no effects) stood at 200 mg/kg-day; in data set [1] (reproduction developmental, duration: 10 days, oral, gavage, F, no effects) it was 200 mg/kg-day.
`c1ccc2cnccc2c1` [Isoquinoline] registered an NOAEL in data set [1] (subchronic, duration: 90 days, oral, gavage, M/F, Sprague-Dawley, no effects) of 3 mg/kg-day.
`CC(=O)N[C@H]1[C@H](O[C@H]2[C@@H](O)[C@@H](CO)O[C@@H](O[C@@H]([C@H](O)[C@@H](O)C=O)[C@H](O)CO)[C@@H]2O)O[C@H](CO)[C@@H](O[C@@H]2O[C@H](CO)[C@H](O)[C@H](O)[C@H]2O)[C@@H]1O` [Lacto-N-neotetraose] registered an NOAEL in data set [1] (subchronic, duration: 90 days, oral, gavage, M/F, Wistar, hematological) of 2500 mg/kg-day.
As to `COc1cc(CCCS(=O)(=O)[O-])ccc1OC(Cc1cccc(OC)c1O)CS(=O)(=O)[O-].[Ca+2]` (stereo not given) [Lignosulfonic acid, calcium salt], the NOAEL in data set [1] (setting [8]) worked out at 2000 mg/kg-day.
Turning to `Cc1occc(=O)c1O` [Maltol], in data set [1] (chronic, duration: 2 years, oral, diet), the NOEL came out at 100 mg/kg-day.
`COC(=O)CCSCc1ccco1` [Methyl 3-{[(furan-2-yl)methyl]sulfanyl}propanoate] had an NOAEL in data set [1] (subchronic, duration: 90 days, oral, diet, M/F, clinical chemistry) of 5.78 mg/kg-day.
For the compound `CC(C)(CO)[C@@H](O)C(=O)NCCC(=O)NCCSSCCNC(=O)CCNC(=O)[C@H](O)C(C)(C)CO` [Pantethine], in data set [1] (chronic, duration: 54 weeks, M/F, clinical chemistry), the NOAEL was 36 mg/kg-day.
As to `C/C=C/C=C/C(=O)[O-].[K+]` [Potassium (E,E)-hexa-2,4-dienoate], the NOAEL in data set [1] (reproduction developmental, oral, gavage, M/F, Crj:CD, body weight) came to 300 mg/kg-day.
With `Cc1cc2nc3c(=O)[nH]c(=O)nc-3n(C[C@H](O)[C@H](O)[C@H](O)COP(=O)([O-])O)c2cc1C.[Na+]` [Riboflavin 5'-(dihydrogen phosphate), sodium salt (1:1)], the NOAEL in data set [1] (subchronic, duration: 90 days, M/F, Wistar, no effects) came to 160 mg/kg-day.
As to `CC1S[C@H](C)N[C@H](C)S1` (stereo not given in full) [Thialdine], the NOAEL in data set [1] (subchronic, duration: 90 days, oral, diet, M, histopathology: nonneoplastic) is 9.3 mg/kg-day.
Take `CN(C)C` [Trimethylamine]: the NOAEL in data set [1] (subchronic, duration: 90 days) stood at 90 mg/kg-day.
`O=P(c1ccccc1)(c1ccccc1)c1ccccc1` [Triphenylphosphine oxide] returned an NOEL in data set [1] (setting [5]) of 2 mg/kg-day.
`CCCCC(CC)COC(=O)c1ccc(C(=O)OCC(CC)CCCC)c(C(=O)OCC(CC)CCCC)c1` (stereo not given) [Tris(2-ethylhexyl) trimellitate] came in with a no observed adverse effect level (NOAEL) in data set [1] (subchronic, duration: 90 days, oral, diet, M/F, Sprague-Dawley, organ weight) of 225 mg/kg-day.
